Values of other authors in US11903955B2, “Methods of treating heart failure with reduced ejection fraction” (ASTRAZENECA AB, priority 2019, dated 2024).

Assays:
[1] = tested on: patients with systolic heart failure; conditions: after 12 months of treatment, SHIFT; cited from earlier work
patients with HFrEF = conditions: after 8 months of treatment, PARADIGM-HF; cited from earlier work

## COc1cc2c(cc1OC)CC(=O)N(CCCN(C)C[C@H]1Cc3cc(OC)c(OC)cc31)CC2 [ivabradine]
[1]
  mean improvement in KCCQ-CSS: 1.8 point
  mean improvement in KCCQ-OSS: 2.4 point

## sacubitril-valsartan
Patients with HFrEF
  improvement in KCCQ-CS over enalapril: 0.9 point
  improvement in KCCQ-OS over enalapril: 1.3 point
